The record followed here is US12391677B2, “Thyroid hormone receptor agonists” (INVENTISBIO CO., LTD., priority 2018, dated 2025).

Marks after values point to notes of the source that are not given here.

The nature of data set [1]: Human hepatocyte clearance study. The class given is in vitro ADME. On the procedure: The in vitro human hepatocyte clearance of compounds described here was studied using pooled human hepatocytes purchased from BioreclamationIVT (Westbury, NY, Cat # X008001, Lot # TQJ). The assay was conducted according to manufacturer's instruction. Briefly, 10 mM stock solutions of test compounds and positive control (Verapamil) were prepared in 100% DMSO. […] Incubation media is made of Williams E medium supplemented with 1×GlutaMax. Both thawing medium and incubation medium (serum-free) were placed in a 37° C. water bath for at least 15 minutes prior to use. […] Verapamil was use as a positive control in the assay. Vials of cryopreserved hepatocytes were removed from storage and thawed in a 37° C. water bath with gentle shaking. Contents of the vial were poured into the 50 mL thawing medium conical tube. Vials were centrifuged at 100 g for 10 minutes at room temperature. […] Hepatocyte viability and density were counted using a Trypan Blue exclusion, and then cells were diluted with serum-free incubation medium to a working cell density of 0.5×10^6 viable cells/mL. Then, a portion of the hepatocytes at 0.5×10^6 viable cells/mL was boiled for 5 minutes prior to adding to the plate as negative control to eliminate the enzymatic activity so that little or no substrate turnover should be observed. The boiled hepatocytes were used to prepare negative samples. Aliquots of 198 μL hepatocytes were dispensed into each well of a 96-well non-coated plate. The plate was placed in the incubator on an orbital shaker at 500 rpm for approximately 10 minutes. […] This assay was performed in duplicate. The plate was incubated in the incubator on an orbital shaker at 500 rpm for the designated time points. Twenty-five microliter of contents were transferred and mixed with 6 volumes (150 μL) of cold acetonitrile with IS (200 nM imipramine, 200 nM labetalol and 200 nM diclofenac) to terminate the reaction at time points of 0, 15, 30, 60, 90 and 120 minutes. […] For data analysis, all calculations were carried out using Microsoft Excel. Peak areas were determined from extracted ion chromatograms. The in vitro half-life (t1/2) of parent compound was determined by regression analysis of the percent parent disappearance vs. time curve. […] Conversion of the in vitro t1/2 (in minutes) into the scale-up unbound intrinsic clearance (scaled-up unbound CLint, in mL/min/kg) was done using the following equation (mean of duplicate determinations): Scaled-up unbound CLint=kV/N×scaling factor, where V=incubation volume (0.5 mL); N=number of hepatocytes per well (0.25×10^6 cells).

In data set [2] the target is ligand binding domain of thyroid hormone receptor beta (Homo sapiens (Human), UniProt P10828). In words: Thyroid hormone receptor TR-FRET binding assay (TRβ LBD). Particulars: TRβ LBD 2 nM. Here is the method:
(§1) TR-FRET binding assay was used to test representative compounds herein.
(§2) The ligand binding domain of thyroid hormone receptor alpha and the ligand binding domain of thyroid hormone receptor beta with GST tag were purchased from Invitrogen. Biotin-SRC2-2 coactivator peptide was purchased from Sangon Biotech, Europium anti-GST and Streptavidin-D2 was from Cisbio.
(§3) Five microliters of 4× compound serial dilution was added in the 384-well plate, white, low volume, round-bottom assay plate. […] Centrifuge the assay plates at 1000 g for 1 min and incubate 1 hr at RT, protected from light. […] Calculate EC50 by fitting % Activity values and log of compound concentrations to nonlinear regression (dose response—variable slope) with Graphpad 5.0.
(In general: TR-FRET usually uses a lanthanide donor and a delayed reading to cut background.)

The target of data set [3] is TRβ-GAL4 binding domain chimeric receptors (Homo sapiens (Human), UniProt P10828). In words: Thyroid hormone receptor cell assay (GAL4 luciferase reporter in HEK293-LUC cells). It is filed as cell-based. From the text:
TRα-LBD or TRβ-LBD, coding sequence was inserted into pBIND expression vector (Promega, E1581) to express TRβ-GAL4 binding domain chimeric receptors. This expression vector was transfected into HEK293-LUC host cells with reporter vector (pGL4.35 which carry a stably integrated GAL4 promoter driven luciferase reporter gene). Upon agonist binding to the corresponding TRa-GAL4 or TRb-GAL4 chimeric receptor, the chimeric receptor binds to the GAL4 binding sites and stimulates the reporter gene.
Seed 2.5×10^6 HEK293-LUC cells into a 60 mm dish and incubated for 16 h at 37° C. under 5% CO2 atmosphere. Mix 12 microliters of Lipo LTX reagent in 250 microliters of Opti-MEM Medium by inversion. Mix 6 ug of DNA in 250 uL of Opti-MEM medium, then add 6 uL of Lipo PLUS Reagent. Add diluted DNA to each tube of diluted Lipo LTX Reagent (1:1 ratio), and mix by Pipettor and incubate at room temperature for 10 min. The reagent mixture was added to a 60 mm dish, incubated with cells for 4-7 h at 37 degrees under 5% CO2 atmosphere.
75 nL compound was added into 384 well assay plate using ECHO550 and then add HEK293-LUC cells (transfected, 17,000 cells/well) into the plate using phenol red-free DMEM containing 5% charcoal/dextran-treated FBS and incubated for 16-20 h at […] under 5% CO2 atmosphere. Add 25 uL of Steady-Glo Luciferase Assay Reagent into each well. Shake for 5 min and then record the luminescence value on Envision 2104 plate reader.

Data set [4] has as its target ligand binding domain of thyroid hormone receptor alpha (Homo sapiens (Human), UniProt P10827). In words: Thyroid hormone receptor TR-FRET binding assay (TRα LBD). The following applies: TRα LBD 4 nM. On the procedure:
as §1, §2, §3

Chain of ligand binding domain of thyroid hormone receptor beta (P10828 217-461): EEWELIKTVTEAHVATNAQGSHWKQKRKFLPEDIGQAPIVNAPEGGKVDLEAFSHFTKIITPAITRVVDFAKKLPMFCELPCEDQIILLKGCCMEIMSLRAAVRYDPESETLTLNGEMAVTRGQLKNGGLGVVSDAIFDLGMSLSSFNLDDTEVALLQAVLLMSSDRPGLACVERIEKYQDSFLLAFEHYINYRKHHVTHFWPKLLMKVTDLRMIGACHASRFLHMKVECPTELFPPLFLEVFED
Chain of TRβ-GAL4 binding domain chimeric receptors (P10828 217-461, stated change not applied): as the sequence (P10828 217-461) above
Chain of ligand binding domain of thyroid hormone receptor alpha (P10827 other isoform, or with tags, fused parts or gaps del 1-162, other chains not shown): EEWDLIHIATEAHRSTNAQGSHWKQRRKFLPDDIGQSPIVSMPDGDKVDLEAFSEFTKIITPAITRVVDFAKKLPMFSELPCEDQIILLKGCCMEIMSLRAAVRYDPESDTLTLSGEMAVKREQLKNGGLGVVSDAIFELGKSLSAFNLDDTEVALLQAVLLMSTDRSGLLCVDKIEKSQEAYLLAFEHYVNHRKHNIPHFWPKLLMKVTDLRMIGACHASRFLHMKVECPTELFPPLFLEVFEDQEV

As a reminder, the CLint scaled is the capacity of the preparation to metabolise the compound, expressed as a volume cleared per time. A low value points to greater metabolic stability. By half-life is commonly meant the time needed for the level to fall by half in the phase considered. A higher half-life goes with slow loss. Broadly, the hepatocyte CLint is the rate of metabolic loss divided by the concentration. In data set [1] (human, hepatocytes), `Cc1nn(-c2cc(Cl)c(Oc3cc(C4CCC4)c(=O)[nH]n3)c(Cl)c2)c(=O)[nH]c1=O` [Compound 9] gave a CLint scaled at 1 µM of 9.5 mL/min/kg, a half-life at 1 µM of 6.18 h and a hepatocyte CLint at 1 µM of 3.73 µL/min/1e6 cells. Moreover, the “Human Hepatocyte Remaining Percentage @ 120 min” value in data set [1] (human, hepatocytes, 2 h, 1 µM) was 79%.

A word on the EC50: it is the concentration at which the effect is half-maximal. Consider `N#Cc1nn(-c2cc(Br)c(Oc3cc(C4CCCC4)c(=O)[nH]n3)c(Br)c2)c(=O)[nH]c1=O` [Compound 20], for which the EC50 in data set [2] is 0.17 µM; in data set [3] it was 4.98 µM; in data set [4], greater than 90 µM.

Turning to `Cc1nn(-c2cc(Br)c(Oc3cc(C4CCCC4)c(=O)[nH]n3)c(Br)c2)c(=O)[nH]c1=O` [Compound 22], the EC50 in data set [2] is 0.09 µM; in data set [3], 0.2 µM; in data set [4], 1.4 µM.

As to `Cc1nn(-c2cc(Cl)c(Oc3cc(C4CCCCC4)c(=O)[nH]n3)c(Cl)c2)c(=O)[nH]c1=O` [Compound 15], the EC50 was 4.33 µM in data set [2], 4.61 µM in data set [3] and 60.2 µM in data set [4].

`CC(C)c1cc(Oc2c(Cl)cc(-n3nc(C#N)c(=O)[nH]c3=O)cc2Cl)n[nH]c1=O` [MGL-3196, reference compound]: in data set [1] (human, hepatocytes), the CLint scaled at 1 µM worked out at 21.3 mL/min/kg, the half-life at 1 µM is 2.75 h and the hepatocyte CLint at 1 µM stood at 8.39 µL/min/1e6 cells. In addition, in data set [1] (human, hepatocytes, 2 h, 1 µM), the “Human Hepatocyte Remaining Percentage @ 120 min” value was found to be 60%.

As to `Cc1nn(-c2cc(Cl)c(Oc3cc(C(C)C4CCCCC4)c(=O)[nH]n3)c(Cl)c2)c(=O)[nH]c1=O` (single isomer, unassigned) [Compound 75], the EC50 in data set [2] amounted to 0.16 µM; in data set [3] it was 0.27 µM; in data set [4] it was 1.13 µM.

With `Cc1nn(-c2cc(Cl)c(Oc3cc(Cc4ccccc4)c(=O)[nH]n3)c(Cl)c2)c(=O)[nH]c1=O` [Compound 27], the “Human Hepatocyte Remaining Percentage @ 120 min” value in data set [1] (human hepatocytes, 120 min) is 100%. Moreover, the “Human Scale-up Clint” value in data set [1] (human hepatocytes, scaling factor 2544.3) is reported as 1.04 mL/min/kg. In data set [1] (human, hepatocytes), the “Human In vitro Clint” value is listed as 0.41 μL/min/10^6 cells and the “Human In vitro T1/2” value is 56.77 h.

As to `CC(C)c1c[nH]c2ccc(Oc3c(Cl)cc(-n4nc(C#N)c(=O)[nH]c4=O)cc3C(F)(F)F)cc12` [Compound 83], the EC50 in data set [2] is 0.02 µM; in data set [3], 0.23 µM; in data set [4], 0.14 µM.

As for `CC(C)c1c[nH]c2ccc(Oc3c(Cl)cc(-n4nc(C#N)c(=O)[nH]c4=O)cc3Cl)cc12` [Compound 56], the results for the EC50 in data set [2], in data set [3] and in data set [4] were 0.09 µM, 1.05 µM and 1.03 µM, respectively.

On to `CC(C)c1cc(Oc2c(Cl)cc(-n3nc(C#N)c(=O)[nH]c3=O)cc2C(F)(F)F)n[nH]c1=O` [Compound 47], for which the EC50 in data set [2] amounted to 0.16 µM; in data set [3], 4.13 µM; in data set [4], 1.49 µM.

With `N#Cc1nn(-c2cc(Cl)c(Oc3cc(C4CCC4)c(=O)[nH]n3)c(C(F)(F)F)c2)c(=O)[nH]c1=O` [Compound 62], the results for the EC50 in data set [2], in data set [3] and in data set [4] were 0.18 µM, 5.29 µM and 1.43 µM, respectively.

In the case of `Cc1nn(-c2cc(Cl)c(Oc3cc(Cc4ccc(C#N)cc4)c(=O)[nH]n3)c(Cl)c2)c(=O)[nH]c1=O` [Compound 66], in data set [1] (human, hepatocytes), the CLint scaled at 1 µM was determined as 4 mL/min/kg, the half-life at 1 µM amounted to 14.7 h and the hepatocyte CLint at 1 µM is 1.57 µL/min/1e6 cells. Besides, the “Human Hepatocyte Remaining Percentage @ 120 min” value in data set [1] (human, hepatocytes, 2 h, 1 µM) is listed as 93%.

Turning to `N#Cc1nn(-c2cc(Br)c(Oc3cc(C4CC4)c(=O)[nH]n3)c(Br)c2)c(=O)[nH]c1=O` [Compound 8], the “Human In vitro T1/2” value in data set [1] (human, hepatocytes) is on record as “∞*”. For the same compound, in data set [1] (human, hepatocytes, 1 µM), the “Human In vitro Clint” value is 0.00* μL/min/10^6 cells and the “Human Scale-up Clint” value was 0.00* mL/min/kg. Also, the “Human Hepatocyte Remaining Percentage @ 120 min” value in data set [1] (human, hepatocytes, 2 h, 1 µM) came out at 98%.

Take `CCc1nn(-c2cc(Cl)c(Oc3cc(C(C)C)c(=O)[nH]n3)c(Cl)c2)c(=O)[nH]c1=O` [Compound 37]: the results for the EC50 in data set [2], in data set [3] and in data set [4] were 1.55 µM, 1.22 µM and 9.82 µM, respectively.

In the case of `N#Cc1nn(-c2cc(Cl)c(Oc3cc(Cc4ccc(O)cc4)c(=O)[nH]n3)c(Cl)c2)c(=O)[nH]c1=O` [Compound 33], the figures for the EC50 in data set [2], in data set [3] and in data set [4] were 0.08 µM, 11.5 µM and 1.27 µM, respectively.

As for `Cc1nn(-c2cc(Cl)c(Oc3cc(C4CCCC4)c(=O)[nH]n3)c(Cl)c2)c(=O)[nH]c1=O` [Compound 14], the results for the half-maximal effective concentration (EC50) in data set [2], in data set [3] and in data set [4] were 0.37 µM, 0.65 µM and 4.06 µM, respectively.

As for `Cc1nn(-c2cc(Br)c(Oc3cc(C(C)C)c(=O)[nH]n3)c(Br)c2)c(=O)[nH]c1=O` [Compound 46], the EC50 is 0.03 µM in data set [2], 0.09 µM in data set [3] and 0.31 µM in data set [4].

For the compound `Cc1nn(-c2cc(Br)c(Oc3cc(C4CC4)c(=O)[nH]n3)c(Br)c2)c(=O)[nH]c1=O` [Compound 23], the EC50 in data set [2] was 0.06 µM; in data set [3] it was 0.18 µM; in data set [4], 0.56 µM.

`CCC(CC)c1cc(Oc2c(Cl)cc(-n3nc(C)c(=O)[nH]c3=O)cc2Cl)n[nH]c1=O` [Compound 40]: the results for the EC50 in data set [2], in data set [3] and in data set [4] were 0.41 µM, 0.61 µM and 38.8 µM, respectively.

Consider `N#Cc1nn(-c2cc(Cl)c(Oc3cc(C4CCCCC4)c(=O)[nH]n3)c(Cl)c2)c(=O)[nH]c1=O` [Compound 4], for which the EC50 in data set [2] was found to be 0.81 µM; in data set [3], 12.2 µM; in data set [4], 36.7 µM.

Regarding `N#Cc1nn(-c2cc(Cl)c(Oc3cc(C4CC4)c(=O)[nH]n3)c(Br)c2)c(=O)[nH]c1=O` [Compound 7], the EC50 in data set [2] stood at 0.37 µM; in data set [3] it was 7.38 µM; in data set [4] it was 5.82 µM.

As for `N#Cc1nn(-c2cc(Cl)c(Oc3cc(CC4CCCCC4)c(=O)[nH]n3)c(Cl)c2)c(=O)[nH]c1=O` [Compound 17], the EC50 was 0.72 µM in data set [2], 12.2 µM in data set [3] and greater than 90 µM in data set [4].

As for `Cc1nn(-c2cc(Cl)c(Oc3cc([C@@H](C)c4ccccc4)c(=O)[nH]n3)c(Cl)c2)c(=O)[nH]c1=O` (single isomer, unassigned) [Compound 71], the values for the EC50 in data set [2], in data set [3] and in data set [4] were 0.3 µM, 0.46 µM and 14.6 µM, respectively.

With `N#Cc1nn(-c2cc(Cl)c(Oc3cc(Cc4ccc5[nH]ncc5c4)c(=O)[nH]n3)c(Cl)c2)c(=O)[nH]c1=O` [Compound 73], the figures for the EC50 in data set [2], in data set [3] and in data set [4] were 0.1 µM, 11.2 µM and 1.18 µM, respectively.

Turning to `N#Cc1nn(-c2cc(Cl)c(Oc3cc(C4CCCC4)c(=O)[nH]n3)c(Cl)c2)c(=O)[nH]c1=O` [Compound 2], the EC50 in data set [2] was 0.76 µM; in data set [3], 9.88 µM; in data set [4], 36.7 µM.

For `N#Cc1nn(-c2cc(Cl)c(Oc3cc(C4CCCC4)c(=O)[nH]n3)c(C(F)(F)F)c2)c(=O)[nH]c1=O` [Compound 63], the EC50 is 0.17 µM in data set [2], 8.43 µM in data set [3] and 90 µM in data set [4].
